The target in this assay is BACE1 (Homo sapiens, UniProt P56817). The experiment in a line: BACE1 FRET assay. The class given is biochemical.

The structures appear in SMILES notation.

BACE1, sequence (P56817 46-501): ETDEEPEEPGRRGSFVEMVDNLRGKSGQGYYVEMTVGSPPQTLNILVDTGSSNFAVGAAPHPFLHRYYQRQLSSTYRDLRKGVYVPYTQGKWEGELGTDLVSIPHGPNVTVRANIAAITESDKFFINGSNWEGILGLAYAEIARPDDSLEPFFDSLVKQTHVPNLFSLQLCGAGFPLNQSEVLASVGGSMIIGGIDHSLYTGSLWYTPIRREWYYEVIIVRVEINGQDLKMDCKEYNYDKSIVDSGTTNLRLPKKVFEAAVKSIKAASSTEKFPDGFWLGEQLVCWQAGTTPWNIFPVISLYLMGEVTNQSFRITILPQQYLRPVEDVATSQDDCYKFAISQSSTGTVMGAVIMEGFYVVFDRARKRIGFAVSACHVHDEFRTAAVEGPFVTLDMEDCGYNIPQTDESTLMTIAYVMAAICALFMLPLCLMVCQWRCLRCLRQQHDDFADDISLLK

As to `COc1cc(OC)c2c(O)c3c(=O)cc(C)oc3c(-c3c(OC)cc4cc(O)c5c(=O)cc(C)oc5c4c3OC)c2c1` [Compound 4, fonsecinone A], the IC50 – broadly, the midpoint of a concentration-inhibition curve – was determined as 14.9 µM.

For `COc1cc(OC)c2c(O)c3c(=O)cc(C)oc3c(-c3c(O)cc4cc(O)c5c(=O)cc(C)oc5c4c3OC)c2c1` [Compound 7, asperpyrone A], the IC50 is 36.5 µM.
